From article PMC5719405, “Sex-related pharmacokinetic differences and mechanisms of metapristone (RU486 metabolite)” (Scientific Reports, 2017)
Where two headings read alike, the source gives them in different places.

How the values were obtained:
[1] = cited from earlier work
[2] = Metapristone metabolism in rat liver microsomes in the presence of specific CYP450 inhibitors; details: inhibitor 10 µM, metapristone 9 µM, male or female rat liver microsomes, 120 min
[3] = set-up: method as in PMID 22210121; details: cited from earlier work

SMILES | effect of CYP inhibitor on metabolism rate of metapristone versus controls [2] | other results
CCN(CC)CCCC(C)Nc1ccnc2cc(Cl)ccc12 (centres unmarked) [Chloroquine] | – | V d ([1]; literature example, no reference given): 15,000 L
CCCn1c(=O)c2[nH]c(C34CC5CC(CC3C5)C4)nc2n(CCC)c1=O [Rolofylline] | – | V d [1]: 239 L
CC[C@H]1OC(=O)[C@@](C)(F)C(=O)[C@H](C)[C@@H](O[C@@H]2O[C@H](C)C[C@H](N(C)C)[C@H]2O)[C@](C)(OC)C[C@@H](C)C(=O)[C@H](C)[C@H]2N(CCCCn3cc(-c4cccc(N)c4)nn3)C(=O)O[C@]12C [Solithromycin] | – | V d [1]: > 500 L
CC(=O)N1CCN(c2ccc(OCC3COC(Cn4ccnc4)(c4ccc(Cl)cc4Cl)O3)cc2)CC1 (centres unmarked) [ketoconazole] | significantly prevented metapristone from degradation | –
CC#C[C@]1(O)CC[C@H]2[C@@H]3CCC4=CC(=O)CCC4=C3[C@@H](c3ccc(N(C)C)cc3)C[C@@]21C [mifepristone] | – | plasma protein binding rate [3]: 90%
C=C[C@H]1C[N@@]2CC[C@H]1C[C@@H]2[C@@H](O)c1ccnc2ccc(OC)cc12 [quinidine] | No significant differences | –
Nc1ccc(S(=O)(=O)Nc2ccnn2-c2ccccc2)cc1 [sulfaphenazole] | No significant differences | –
O=c1cc(-c2ccccc2)oc2c1ccc1ccccc12 [α-naphthoflavone] | significantly prevented metapristone from degradation | –
